According to patent US20130245047A1, “COMPOSITIONS FOR TREATING CANCER-RELATED FATIGUE AND METHODS OF SCREENING THEREOF” (TENERA THERAPEUTICS, LLC, priority 2011, published 2013):
Blank lines part the entries; values can stand above or below the compound they belong to.

How the values were obtained:
BALB/c mice = assay: etoposide-induced fatigue model (CTRF animal model), activity, weight and blood chemistry; type: in vivo
Method: An animal model has been developed to screen for drugs which are efficacious in the treatment, alleviation and/or prevention of chronic fatigue syndrome, such as cancer treatment-related fatigue (“CTRF”). […] The animal's overall activity is measured using a running wheel or other method. In addition, the animal's day and night activity profiles are measured to determine when disrupted sleep architecture is present. This is characterized by disruption of the REM sleep as well as fatigue and cognitive dysfunction. The animal's percent daily weight change is also determined. The levels of cytokines such as IL-6 can be measured, since these are typically elevated with chemotherapy treatment. Results can be provided as percent change of total activity, percent change relative to light exposure, percent weight change over a defined time period (day, week), and combinations thereof.
The model can be created using any one of a number of different drugs, alone or in combination with additional therapy, such as one or more other chemotherapeutics or radiation. The in vitro and in vivo models described above can be used to identify compounds that effectively treat CTRF. In one embodiment, etoposide is administered in a dosage of 50 to 60 mg/kg to cause CTRF. In this study etoposide was administered by a single intraperitoneal injection on the first day of the study.
(§1) For the etoposide-induced fatigue model (FIGS. 2-7), BALB/c mice (obtained and housed as described above) were divided into groups of 10 animals per group: 1. control (untreated) mice, 2. mice treated with a single intraperitoneal dose of 60 mg/kg etoposide on day 1, and 3. mice treated with a single intraperitoneal dose of 60 mg/kg etoposide on day 1, followed by daily oral doses of pentoxifylline administered as a 1 mg/kg dose in the drinking water throughout the study. The animals were then assessed for their level of activity relative to time of day (day and night); total locomotor activity; blood chemistry (hemoglobin, red blood cells, white blood cells); over time in weeks.

IL-6 = IL-6 levels in etoposide-treated animals; type: in vivo, mice; conditions: increasing etoposide dosing (0, 50 or 60 mg/kg); FIG. 3
Method: An animal model has been developed to screen for drugs which are efficacious in the treatment, alleviation and/or prevention of chronic fatigue syndrome, such as cancer treatment-related fatigue (“CTRF”). […] The animal's overall activity is measured using a running wheel or other method. In addition, the animal's day and night activity profiles are measured to determine when disrupted sleep architecture is present. This is characterized by disruption of the REM sleep as well as fatigue and cognitive dysfunction. The animal's percent daily weight change is also determined. The levels of cytokines such as IL-6 can be measured, since these are typically elevated with chemotherapy treatment. […]
as §1, with “[…], […],” for “2. mice treated with a single intraperitoneal dose of 60 mg/kg etoposide on day 1, and 3. mice treated with a single intraperitoneal dose of 60 mg/kg etoposide on day 1,”

female BALB/c mice = assay: LPS-induced fatigue model, daily activity counts; type: in vivo; conditions: single intraperitoneal dose of 2.5 mg/kg lipopolysaccharide vs saline control; FIG. 1
Method: For the LPS-induced fatigue model shown in FIG. 1, […], female BALB/c mice were obtained from Charles River Laboratories (Wilmington, Mass.). The mice were randomized into 2 groups of 10 prior to treatment. Animals were housed 5 per cage in micro-isolators and allowed to acclimatize for 4 days prior to dosing. Animal were given food and water ad libitum with a 12 hour light/12 hour dark schedule.
Animals in the control group were initially injected intraperitoneally with saline. Animals in the LPS group were injected intraperitoneally with a single dose of 2.5 mg/kg lipopolysaccharide on dayl.

[1] = etoposide, over time in days, FIG. 5

Compound: CC(=O)CCCCn1c(=O)c2c(ncn2C)n(C)c1=O [Pentoxifylline]
- total locomotor activity (BALB/c mice; animals treated with 60 mg etoposide/kg, then daily oral pentoxifylline 1 mg/kg in drinking water, FIG. 6): improves activity
- 12 hour dark activity over time (weeks) (BALB/c mice; etoposide treated followed by pentoxifylline 1 mg/kg daily oral vs etoposide treated and untreated control, FIG. 7A): significantly increase nocturnal activity
- 12 hour light activity over time (weeks) (BALB/c mice; etoposide treated followed by pentoxifylline 1 mg/kg daily oral vs etoposide treated and untreated control, FIG. 7B): decrease activity when animals should be sleeping

- fatigue (percent of baseline) over time (weeks) (BALB/c mice; 60 mg etoposide/kg, 12 hour dark cycle or 12 hour light cycle, FIG. 4): decreased activity
- percent daily weight change (shift of circadian rhythm) (BALB/c mice; [1]): weight loss
- dependence of the observed results on anemia (blood chemistry) (BALB/c mice; mice treated with etoposide): independent of anemia
- levels of IL-6 (IL-6): increased levels of IL-6
Compound: COc1cc([C@@H]2c3cc4c(cc3[C@@H](O[C@@H]3O[C@@H]5CO[C@@H](C)O[C@H]5[C@H](O)[C@H]3O)[C@H]3COC(=O)[C@H]23)OCO4)cc(OC)c1O [etoposide]
- total locomotor activity over time (weeks) (BALB/c mice; 60 mg etoposide/kg single intraperitoneal dose, FIG. 2): decreased total activity over time of treatment
- activity counts (shift of circadian rhythm) (BALB/c mice; [1]): decreased activity, which was more pronounced during the evening

Compound: lipopolysaccharide [LPS]
- total daily activity (counts/group) per day (female BALB/c mice): decreased activity indicative of fatigue
